In one assay the target is T1, MMP-2 (Homo sapiens, UniProt P08253).
T1 construct: made in house; host or cells: MMP-2-transfected p2AHT2 cells
T1 sequence (P08253 110-660): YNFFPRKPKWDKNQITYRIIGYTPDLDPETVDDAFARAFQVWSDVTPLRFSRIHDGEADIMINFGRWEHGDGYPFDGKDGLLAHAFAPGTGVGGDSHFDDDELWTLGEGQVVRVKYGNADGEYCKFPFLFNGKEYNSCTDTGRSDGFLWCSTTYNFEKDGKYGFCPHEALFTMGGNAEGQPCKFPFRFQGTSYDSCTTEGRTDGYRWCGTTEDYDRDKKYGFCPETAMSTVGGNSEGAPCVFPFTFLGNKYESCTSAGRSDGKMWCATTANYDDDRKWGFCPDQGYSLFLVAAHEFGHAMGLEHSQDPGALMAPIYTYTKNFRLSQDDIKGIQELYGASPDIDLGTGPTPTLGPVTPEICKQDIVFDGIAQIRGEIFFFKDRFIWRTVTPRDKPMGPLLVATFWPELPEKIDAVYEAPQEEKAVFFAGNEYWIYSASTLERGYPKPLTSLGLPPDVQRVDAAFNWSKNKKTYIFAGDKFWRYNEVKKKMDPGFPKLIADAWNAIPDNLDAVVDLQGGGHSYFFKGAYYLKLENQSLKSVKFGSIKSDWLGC
In words: In vitro MMP inhibition, IC50 determination (fluorogenic substrate I). The class given is biochemical. The following applies: value in parenthesis; read-out: MMP-2 (IC-50). Here is the method: (§1) Several hydroxamic acids and salts thereof were analyzed in in vitro assays to determine their ability to inhibit the MMP cleavage of peptide substrates. […] and IC50 constants were calculated from the assayed hydroxamic acid-MMP interactions.
(§2) Human recombinant MMP-1, MMP-2, MMP-9, MMP-13, and MMP-14 were used in this assay. All enzymes were prepared in Assignee's laboratories following usual laboratory procedures. Protocols for the preparation and use of these enzymes are available in the scientific literature. See, e.g., Enzyme Nomenclature (Academic Press, San Diego, Calif., 1992) (and the citations therein). See also, Freije et al., “Molecular cloning and expression of collagenase-3, a novel human matrix metalloproteinase produced by breast carcinomas,” J Biol. Chem., 269(24), 16766-16773 (1994).
The MMP-2 proenzyme was purified by gelatin Sepharose chromatography from MMP-2-transfected p2AHT2 cells provided by Dr. Gregory Goldberg of Washington University (St. Louis, Mo.).
(§3) All MMPs were activated using 4-aminophenylmercuric acetate (“APMA”, Sigma Chemical, St. Louis, Mo.) or trypsin. MMP-9 also was activated using human recombinant MMP-3 (purified in Assignee's laboratory following standard cloning and purification techniques).
(§4) Two fluorogenic, methoxycoumarin-containing polypeptide substrates were used in the MMP inhibition assays: [drawing 427] Here, “Dpa” is 3-(2,4-dinitrophenyl)-L-2,3-diaminopropionyl group, and “MCA” is 7-methoxycoumarin-4-yl acetyl. Substrate (I) was purchased from Baychem (Redwood City, Calif.), and substrate II was prepared Assignee's laboratory. Substrate I was used in the IC50 determination assays, while substrate II was used in the Ki determination assays. In the absence of MMP inhibitory activity, either substrate is cleaved at the Gly-Leu peptide bond. This cleavage separates the highly fluorogenic peptide from the 2,4-dinitrophenyl quencher, thus resulting in increase of fluorescent intensity.
(§5) The stock solutions of the assayed hydroxamic acids (or salts thereof) were prepared in 1% dimethyl sulfoxide (DMSO). These stock solutions were diluted in Buffer A (100 mM Tris-HCl, 100 mM NaCl, 10 mM CaCl2, 0.05% polyoxyethylene 23 lauryl ether, pH 7.5) to obtain solutions with different hydroxamic acid concentrations, i.e., assay solutions with different concentrations of the assayed MMP inhibitory compound. The experiment controls contained the same amount of Buffer A/DMSO as the assayed sample, but contained no hydroxamic acid (or salt thereof).
(§6) The assays from which the IC50 determinations were made were performed as follows. The MMPs were activated with either trypsin or APMA (4-aminophenylmercuric acetate, Sigma Chemical, St. Louis, Mo.). The assayed hydroxamic acid samples were incubated in Microfluor™ White Plates (Dynatech, Chantilly, Va.) and analyzed on a Perkin Elmer L550 plate reader (Norwalk, Conn.). The excitation wavelength was 328 nm, and the emission wavelength—415 nm. All samples (assayed hydroxamic acids and controls) were incubated in separate plates at room temperature in the presence of 4 μM of MMP substrate (I). As stated in the previous paragraph, samples containing varying concentrations of the same assayed hydroxamic acid were prepared. Inhibition was measured as a reduction in fluorescent intensity as a function of MMP inhibitor concentration.
The above protocols were used to determine IC50 constants and Ki values for the compounds in Examples 1-27 above. All values in Table 2 are given in nM units. The IC50 measurements are in parenthesis.

Another assay has as its target T2, MMP-13 (Homo sapiens, UniProt P45452).
T2 construct: made in house; host or cells: baculovirus / insect cells
The assay is described as above. It is filed as biochemical. The following applies: value in parenthesis; read-out: MMP-13 (IC-50). As for the experimental part: as §1, §2
The MMP-13 was obtained as a proenzyme from a full-length cDNA clone using baculovirus, as described by V. A. Luckow, “Insect Cell Expression Technology,” Protein Engineering: Principles and Practice, pp. 183-218 (edited by J. L. Cleland et al., Wiley-Liss, Inc., 1996). The expressed proenzyme was first purified over a heparin agarose column, and then over a chelating zinc chloride column. The proenzyme was then activated by APMA for use in the assay. Further details on baculovirus expression systems may be found in, for example, Luckow et al., J. Virol., 67, 4566-79 (1993). See also, O'Reilly et al, Baculovirus Expression Vectors: A Laboratory Manual (W.H. Freeman and Co., New York, N.Y., 1992). See also, King et al., The Baculovirus Expression System: A Laboratory Guide (Chapman & Hall, London, England, 1992).
as §3, §4, §5
as §6, with “concentration. […]” for “concentration.”

On to `CCCC(C)Cc1ccc(N2CCN(S(=O)(=O)C3(C(=O)NO)CCN(CCOC)CC3)CC2)cc1` (stereo not drawn) [Example 189], for which the IC50 at MMP-2 is 1.9 nM; on MMP-13, 1 nM.

Take `CCC(C)Cc1ccc(N2CCN(S(=O)(=O)C3(C(=O)NO)CCN(CCOC)CC3)CC2)cc1` (stereo not drawn) [Example 190]: the IC50 at MMP-2 was determined as 1.6 nM; on MMP-13, 2.4 nM.

Turning to `COCCN1CCC(C(=O)NO)(S(=O)(=O)N2CCN(c3ccc(CCCCC(C)C)cc3)CC2)CC1` [Example 191], the results for the IC50 on MMP-2 and at MMP-13 were under 0.1 nM and under 1 nM, respectively.

Turning to `COCCN1CCC(C(=O)NO)(S(=O)(=O)N2CCN(c3ccc(CC(C)C)cc3)CC2)CC1` [Example 192], the IC50 on MMP-2 was determined as 1.3 nM; on MMP-13 it was 3.6 nM.

As for `CCc1ccc(N2CCN(S(=O)(=O)C3(C(=O)NO)CCN(CCOC)CC3)CC2)cc1` [Example 193], the IC50 on MMP-2 turned out to be 0.2 nM; at MMP-13, 1.9 nM.

As to `COCCN1CCC(C(=O)NO)(S(=O)(=O)N2CCN(c3ccc(C)cc3)CC2)CC1` [Example 194], the IC50 is 0.5 nM at MMP-2 and 3.1 nM at MMP-13.

On to `COCCN1CCC(C(=O)NO)(S(=O)(=O)N2CCN(c3ccccc3)CC2)CC1` [Example 195], for which the results for the IC50 on MMP-2 and at MMP-13 were 2.4 nM and 11.5 nM, respectively.

With `COCCN1CCC(C(=O)NO)(S(=O)(=O)N2CCN(c3nc4ccccc4o3)CC2)CC1` [Example 196], the IC50 on MMP-2 is 30.5 nM; at MMP-13, 177 nM.

As to `CCCCCc1ccc(N2CCN(S(=O)(=O)C3(C(=O)NO)CCOCC3)CC2)nn1` [Example 197], the results for the IC50 on MMP-2 and at MMP-13 were 19.1 nM and 35.1 nM, respectively.

Consider `O=C(NO)C1(S(=O)(=O)N2CCN(c3ccc(Cl)nn3)CC2)CCOCC1` [Example 198], for which the IC50 at MMP-2 is 18.2 nM; on MMP-13, 285 nM.

On to `CCCCCCc1ccc(N2CCN(S(=O)(=O)C3(C(=O)NO)CCN(CCOC)CC3)CC2)cc1` [Example 199], for which the values for the IC50 at MMP-2 and on MMP-13 were under 0.1 nM and 0.2 nM, respectively.

`CCCc1ccc(N2CCN(S(=O)(=O)C3(C(=O)NO)CCN(CCOC)CC3)CC2)cc1` [Example 200]: the results for the IC50 at MMP-2 and on MMP-13 were under 0.1 nM and 0.6 nM, respectively.

Turning to `COCCN1CCC(C(=O)NO)(S(=O)(=O)N2CCN(c3ccc(Br)cc3)CC2)CC1` [Example 201], the figures for the IC50 on MMP-2 and at MMP-13 were under 0.1 nM and 0.8 nM, respectively.

With `COCCN1CCC(C(=O)NO)(S(=O)(=O)N2CCN(c3ccc(OC(F)(F)F)cc3)CC2)CC1` [Example 202], the IC50 on MMP-2 was under 0.1 nM; at MMP-13, 0.2 nM.

With `O=C(NO)C1(S(=O)(=O)N2CCN(c3ccc(OC(F)(F)F)cc3)CC2)CCN(C2CC2)CC1` [Example 203], the IC50 at MMP-2 is under 0.1 nM; at MMP-13, 0.5 nM.
